Assays:
[1] = test system: renin mRNA in the kidney; assay: Renin mRNA in the kidney of treated mice (Northern blot); type: in vivo, mouse
Method: A. […] The 2 doses were given in two consecutive days at 9 am. The 5 doses were given in three consecutive days at 9 am and 7 pm for the first two days, and at 9 am on the third day. Total renal RNA was isolated 6 hr after the last injection. Renin, calbindin-D9k (CaBP-D9k) and 36B4 mRNA levels were determined by Northern blot analysis. B. Quantitation of renin mRNA levels.
(A) Blood ionized calcium levels.
As a control for vitamin D action, Calbindin-D9k stimulation was measured. Quantitative data were presented below the Northern blot gels.
Total kidney RNAs were separated on agarose gels (20 μg/lane). Membranes were hybridized sequentially with 32P-labeled renin and 36B4 cDNA probes. The relative amount of renin mRNA was quantitated after being normalized with 36B4 mRNA levels. […] (B) Quantitative results-from Northern blots in (A).
Animals and treatment. […] VDR^−/− and Gcm2^−/− mice were generated through breeding of heterozygous mice and identified by PCR with tail genomic DNA as the template, and the wild-type littermates were used as controls. […] To increase the sodium load, mice were fed the normal rodent diet supplemented with 8% NaCl for 1, 3, 5 and 7 days. […] Wild-type mice were injected (i.p.) with vehicle or 30 pmole of 1,25(OH)2D3 dissolved in propylene glycol. Mice were sacrificed by exsanguination under anesthesia and the blood was collected into ice-cold tubes for serum isolation, or into ice-cold tubes containing 50 μl of EDTA (pH 8.0) and 100 U/ml aprotinin for plasma isolation. The determination of water and food intake, as well as urine collection, were carried out by using metabolic cages.
RNA isolation and northern blot. The kidney and liver were dissected and immediately placed into the Trizol Reagent (Invitrogen, Grand Island, N.Y.) for total RNA isolation according to the manufacturer's instruction. […] Mouse renin and angiotensinogen cDNA probes were labeled with ^32P-dATP (ICN, Costa Mesa, Calif.) using the Prime-a-gene Labeling System (Promega, Madison, Wis.). After hybridization and washing, membranes were exposed to X-ray films at −80° C. for autoradiography. The relative amount of mRNA was quantitated using a Phospholmager (Molecular Dynamics, Sunnyvale, Calif.) and normalized with 36B4 mRNA.

[2] = test system: renin mRNA, As4.1-hVDR cells; assay: Renin mRNA by Northern blot in As4.1-hVDR cells (vitamin D analog screening); type: cell-based, mouse; parameters: Relative inhibitory activity (renin suppressive activity of Gemini analogues): key to the marks not given beside the values; details: for Relative inhibitory activity (renin suppressive activity of Gemini analogues): 24 hours at 10-8, 10^-9 and 10^-10 M, renin mRNA by Northern blot, relative to 1,25-dihydroxyvitamin D3
Method: Vitamin D analogues listed in TABLE 1 were used to treat As4.1-hVDR cells at 10^−10, 10^−9 and 10^−8 M. Renin mRNA was analyzed by Northern blot. 36B4 is a control mRNA and represents a mouse acidic ribosomal phosphoprotein.
FIG. 4 is an histogram of evaluation of Gemini analogues by Northern blot analysis. The 11 Gemini compounds listed in TABLE 2 (indicated) were used to treat As4.1 hVDR cells at 10^−10, 10^−9, and 10^−8 M for 24 hours. Renin mRNA was quantitated by Northern blots. The quantitative data obtained at 10^−10 and 10^−9 M are shown in A and B. The # of each compound corresponds to the number shown in TABLE 2. E, ethanol-treated control, VD, 1,25(OH)2D3.
(§1) RNA isolation and northern blot. The kidney and liver were dissected and immediately placed into the Trizol Reagent (Invitrogen, Grand Island, N.Y.) for total RNA isolation according to the manufacturer's instruction. To determine renin or angiotensinogen mRNA expression, total RNA (20 μg/lane) was separated on a 1.2% agarose gel containing 0.6 M formaldehyde, transferred onto a Nylon membrane (MSI, Westborough, Mass.) and crosslinked in a UV crosslinker (Bio-Rad, Hercules, Calif.). Hybridization was performed as described by Li et al. (2001). Mouse renin and angiotensinogen cDNA probes were labeled with ^32P-dATP (ICN, Costa Mesa, Calif.) using the Prime-a-gene Labeling System (Promega, Madison, Wis.). After hybridization and washing, membranes were exposed to X-ray films at −80° C. for autoradiography. The relative amount of mRNA was quantitated using a Phospholmager (Molecular Dynamics, Sunnyvale, Calif.) and normalized with 36B4 mRNA.
As4.1 cell culture and transfection. As4.1 cells (ATCC, Manassas, Va.) were cultured in DMEM supplemented with 10% FBS at 37° C. and 5% CO2. For transient transfection, the cells were grown in 10-cm dishes to 50% confluence and transfected with pcDNA3.1, pcDNA-hVDR or pcDNA-PTH/PTHrPR plasmid (10 μg DNA/dish) by the standard calcium phosphate method. Twenty-four hr after transfection, the cells were treated for 24 hr with 5×10^−8 M of 1,25(OH)2D3 or ethanol in serum-free media, or with different doses of bovine PTH(1-34) as indicated. Total RNA was isolated and analyzed for renin mRNA expression by northern blot. For stable transfection, As4.1 cells were transfected with pcDNA3.1 or pcDNA-hVDR plasmid by the use of Superfect reagent (Qiagen, Valencia, Calif.) and selected with 350 μg/ml of G418 for two weeks. Individual colonies were picked, expanded and selected for VDR expression. The As4.1-hVDR stable clones were treated with different doses of 1,25(OH)2D3 for 24 hr in serum-free media, and total RNA were analyzed by northern blot to examine renin expression.

[3] = test system: 4.1 kb renin gene promoter (Ren-1c), As4.1-hVDR cells; assay: Renin gene promoter luciferase reporter assay in As4.1-hVDR cells; type: cell-based, mouse; details: 10^−8 M; for Suppression of renin promoter activity (luciferase): pGL-4.1 kb-Luc transfected As4.1-hVDR cells
Excerpt: As4.1-hVDR cells were transfected with pGL-4.1 kb-Luc, and treated with ethanol (E), 10^−8 M of 1,25(OH)2D3 (VD3) and different analogues as indicated.
A. Expression of hVDR mRNA in stable As4.1 clones. P, parental As4.1 cells; #57, As4.1 clone 57 stably transfected with pcDNA-hVDR; V, As4.1 clone stably transfected with the empty vector pcDNA3.1. B. Renin mRNA expression in As4.1 clone V (Vector) and #57 treated with ethanol (E) or different doses of 1,25(OH)2D3 as indicated. c. As4.1-hVDR cells (clone #57) were transfected with pGL3-Control, pGL-4.1 kb or pGL-117 bp luciferase reporter plasmid and then treated with ethanol (closed bar) or 10^−8 M of 1,25(OH)2D3 (open bar). Luciferase activity was determined 48 hr after transfection. Similar results were obtained in other stable clones.
Renin gene promoter analysis. Plasmid pR1C-4.1 CAT that contains 4.1 kb 5′-flanking sequence of mouse Ren-1^c gene (Petrovic et al. 1996) was provided by Dr. K. W. Gross (Roswell Park Cancer Institute, Buffalo, N.Y.). To generate pGL-117 bp reporter plasmid, the 123 bp renin minimal promoter fragment (+6 to −117) was released from pR1C-4.1 CAT with XbaI and BamHI and inserted into the HindIII site of pGL3-basic vector (Promega, Madison, Wis.). To generate pGL-4.1 kb reporter plasmid, the BamHI fragment (−4.1 kb to −118 bp) from pRI C-4.1 CAT was inserted into the BglII site of pGL-117 bp. To analyze the activity of renin gene promoter, As4.1-hVDR cells were transfected with the reporter plasmids by electroporation according to Shi et al. (2001) using a Bio-Rad Gene Pulser (Bio-Rad, Hercules, Calif.). pCMV-β-gal plasmid was co-transfected as an internal control. pGL3-control plasmid (Promega) was used as the positive control. The transfected cells were treated with ethanol or 10^−8 M of 1,25(OH)2D3 in Opti-MEM medium (Invitrogen) containing 2% charcoal-treated FBS four hr after electroporation, and luciferase activity was determined at 48 hr after initial transfection, using the Luciferase Assay System (Promega). Luciferase activity was normalized to β-gal activity obtained from the same electroporation, and presented as fold induction based on the basal activity of pGL3-basic empty vector determined in the same experiment.

[4] = Blood ionized calcium and survival of treated mice; type: in vivo, mouse; details: for Blood calcium level: daily dose 1.5 μg/kg body weight for one week
Excerpt: Two-month old wildtype mice were fed the normal diet supplemented with 2.5% strontium chloride for 7 weeks before sacrifice. A. Northern blot analysis of renin mRNA expression in the kidney from non-treated and strontium-treated wildtype mice. Each lane represents an individual animal. B. Quantitative results of the northern analysis. C. Blood ionized calcium concentration determined at the end of the treatment (n=5 in each group). In both b and c, NT, non-treated; STR, strontium-treated, *, P<0.01 vs. NT value.
(A) Blood ionized calcium levels. Normal mice (n=5) were treated with vehicle (control), 1,25(OH)2D3 (VD3) or compound #9 at a daily dose of 1.5 μg/kg body weight for one week. […] (B) Renin mRNA levels in the kidneys of treated mice, as determined by quantitative Northern blots. *, P<0.01.
Measurement of blood and urine parameters. The concentration of blood ionized calcium was determined using a Ciba/Coming 634 Ca^++/pH analyzer (Chiron Diagnostics, East Walpole, Mass.) from 50 μl of whole blood obtained from tail snipping. Blood glucose concentrations were determined by using One Touch Sure Step test strips (Life Scan, Milpitas, Calif.). Serum intact parathyroid hormone (iPTH) was determined using a commercial ELISA kit (Immutopics, San Clemente, Calif.). The concentration of serum and urinary Na^+, K^+, and creatinine was determined by a Beckman Coulter CX5 Autoanalyzer as described by Li et al. (2001).

[5] = test system: renin mRNA, As4.1 cells; assay: Renin mRNA by northern blot in As4.1 cells with or without transient transfection; type: cell-based, mouse
Excerpt: A. As4.1 cells were transiently transfected with (+) or without (−) pcDNA-hVDR plasmid containing the full-length human VDR cDNA and then. treated with 5×10^−8 M of 1,25(OH)2D3 (+) or ethanol (−) for 24 hrs. Total cellular RNA was isolated and analyzed by northern blot with renin and 36B4 cDNA probes. B. Quantitative results of northern blot analyses obtained from three independent experiments. C, ethanol-treated; VD, 1,25(OH)2D3-treated; T, transfected with pcDNA-hVDR and treated with ethanol; T/VD, transfected with pcDNA-hVDR and treated with 1,25(OH)2D3. *, P<0.001 vs. C, VD or T value. C. Renin mRNA expression in As4.1 cells (left panel), and in As4.1 cells transfected with pcDNA-PTH/PTHrPR containing the rat PTH/PTHrP receptor cDNA (right panel) and treated with bovine PTH (1-34) as indicated. −, untreated.
as §1
As4.1 cell culture and transfection. […] Total RNA was isolated and analyzed for renin mRNA expression by northern blot. […] The As4.1-hVDR stable clones were treated with different doses of 1,25(OH)2D3 for 24 hr in serum-free media, and total RNA were analyzed by northern blot to examine renin expression.

[6] = wildtype mice, normal diet with 2.5% strontium chloride for seven weeks

## C=C1/C(=C\C=C2/CCC[C@]3(C)[C@@H]([C@H](C)CCCC(C)(C)O)CC[C@@H]23)C[C@@H](O)C[C@@H]1O [1,25-dihydroxyvitamin D3]
[1]; wildtype mice, 30 pmole/dose i.p., control vitamin D target gene
  mRNA of renal calbindin-D9k: significantly increased
[1]; wildtype mice, five doses of 30 pmole i.p. in three days
  Decrease of renal renin expression: 50%
[1]; wildtype mice, two doses of 30 pmole/dose i.p. in two consecutive days
  Decrease of renal renin expression: 35%
[2]; not seen in As4.1-pcDNA cells
  Renin expression in stable As4.1-hVDR clones at different doses: dose-dependent suppression
[2]; stable As4.1-hVDR cells, 10^−8 M, 24 hr
  Reduction of the level of renin mRNA: about 90%
[2]; time-course studies, As4.1-hVDR cells
  Time of treatment after which suppression of renin mRNA was evident: 6 h
[3]; As4.1-hVDR cells
  Effect on the activity of the SV40 promoter in pGL3-Control plasmid: no effect
[3]; pGL-4.1 kb, luciferase at 48 hr after transfection
  Reduction of the activity of the 4.1 kb renin gene promoter: more than 80%
[4]; normal mice, daily dose 1.5 μg/kg body weight
  Deaths on day 7: 2 animals out of the 5 mice
[4]; normal mice
  Blood calcium level: severe hypercalcemia
[5]; As4.1 cells not transfected, 5×10^−8 M
  Renin mRNA expression in As4.1 cells: moderate reduction
[5]; As4.1 cells transiently transfected with pcDNA-hVDR, 5×10^−8 M, 24 hrs
  Reduction of renin mRNA expression: about 90%

## PTH(1-34): bovine PTH(1-34), parathyroid hormone fragment used to treat As4.1 cells (AVSEIQFMHNLGKHLSSMERVEWLRKKLQDVHNF; UniProt P01268 32-65, looked up, fragment)
[5]; As4.1 cells, or As4.1 transfected with pcDNA-PTH/PTHrPR, different doses
  Renin expression in PTH-treated As4.1 cells: No increase in renin expression

## C=C1C(=CC=C2CCCC3(C)C2CCC3C(CCCC(C)(C)O)CCC(O)C(C)(C)O)CC(O)CC1O [#18, 1,25-dihydroxy-21(2R,3-hydroxy-3-methylbutyl)-20S-cholecalciferol]
[2]; As4.1-hVDR cells
  Relative inhibitory activity (renin suppressive activity of Gemini analogues): ++

## C=C1C(=CC=C2CCCC3(C)C2CCC3C(CCCC(C)(C)O)CCCC(C)(C)O)CC(O)CC1O (centres unmarked) [#4, 1,25-dihydroxy-21(3-methyl-3-hydroxy-butyl)-cholecalciferol]
[2]; As4.1-hVDR cells
  Relative inhibitory activity (renin suppressive activity of Gemini analogues): ++
[3]
  Suppression of renin promoter activity (luciferase): super-potency

## [Cl-].[Cl-].[Sr+2] [strontium, strontium chloride]
[1]; [6]
  Renin mRNA expression in the kidney: significant increase
[4]; [6]
  Blood ionized calcium: hypocalcemic

## CC(C)(O)CCCC(CCCC(C)(C)O)C1CCC2C(=CC=C3CC(O)CC(O)C3)CCCC21C (centres unmarked) [#9, 1,25-dihydroxy-21(3-methyl-3-hydroxy-butyl)-19-nor-cholecalciferol]
[1]; normal mice, daily dose 1.5 μg/kg body weight for one week
  Renin mRNA expression in the kidneys: reduced
[1]; normal mice, daily dose 5 μg/kg body weight for one week
  Reduction in renin mRNA levels in the kidneys: 54%
[1]; normal mice, daily dose 12 μg/kg body weight for one week
  Reduction in renin mRNA levels in the kidneys: 76%
[3]
  Suppression of renin promoter activity (luciferase): super-potency
[4]; normal mice
  Blood calcium level: minimal increase

— US20050113348A1, “Vitamin D and vitamin D analogs or derivatives as new anti-hypertensive agents” (priority 2003, published 2005)
